Structures can show the parent of a compound that is named as a salt.
Key:
[1] = target: c-Kit(V654A) (Homo sapiens, UniProt P10721, V654A); test: c-Kit(V654A) assay; assay type: biochemical; details: Table 1; 200 μM ATP
Procedure, shortened: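 Radiometric filter-binding read-out: after 3% phosphoric acid stop, peptide-incorporated 33P on filtermat scintillation-counted. Enzyme: human c-Kit V654A, residues 544–end, N-terminal GST fusion.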

[2] = target: mutant cKIT (560-576 and V654A) in GIST430/654 cell line (Homo sapiens (Human), UniProt P10721, DEL560-576/V654A); test: Cellular testing of cKIT mutant inhibitors: phospho-Y307-cKIT Luminex assay in GIST430/654 cells; assay type: cell-based; details: Table 1; cKIT autophosphorylation, compounds 45 min; read-out: GIST 430/654 IC50
Chain of mutant cKIT (560-576 and V654A) in GIST430/654 cell line (P10721 other isoform, or with tags, fused parts or gaps V654A/del 1-25/del 560-576 limits assumed): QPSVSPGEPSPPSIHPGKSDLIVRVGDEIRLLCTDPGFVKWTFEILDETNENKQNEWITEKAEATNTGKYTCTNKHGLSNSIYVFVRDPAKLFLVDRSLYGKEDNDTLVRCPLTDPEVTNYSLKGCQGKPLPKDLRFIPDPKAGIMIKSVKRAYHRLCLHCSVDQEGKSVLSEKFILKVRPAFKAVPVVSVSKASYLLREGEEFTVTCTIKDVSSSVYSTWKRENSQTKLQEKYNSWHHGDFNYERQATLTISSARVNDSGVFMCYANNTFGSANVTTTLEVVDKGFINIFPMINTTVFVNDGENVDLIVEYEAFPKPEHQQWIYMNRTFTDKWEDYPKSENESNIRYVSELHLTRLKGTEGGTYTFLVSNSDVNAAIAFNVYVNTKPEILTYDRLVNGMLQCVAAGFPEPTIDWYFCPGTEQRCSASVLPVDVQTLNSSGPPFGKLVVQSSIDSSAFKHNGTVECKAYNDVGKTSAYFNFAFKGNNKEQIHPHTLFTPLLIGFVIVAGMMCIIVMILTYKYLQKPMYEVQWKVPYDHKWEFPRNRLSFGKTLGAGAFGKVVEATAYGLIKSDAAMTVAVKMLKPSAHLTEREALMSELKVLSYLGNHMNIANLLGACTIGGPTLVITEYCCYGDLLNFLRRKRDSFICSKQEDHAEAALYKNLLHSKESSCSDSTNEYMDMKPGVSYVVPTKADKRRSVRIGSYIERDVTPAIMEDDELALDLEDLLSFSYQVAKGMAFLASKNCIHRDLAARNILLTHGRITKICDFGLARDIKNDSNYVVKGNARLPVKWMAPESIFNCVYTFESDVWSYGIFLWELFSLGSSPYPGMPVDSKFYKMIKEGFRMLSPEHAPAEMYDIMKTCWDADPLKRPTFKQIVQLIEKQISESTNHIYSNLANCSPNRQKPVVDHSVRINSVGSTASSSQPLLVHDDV
Procedure, shortened: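 GIST430/654 cells carrying constitutively active cKIT (Δ560-576/V654A) were grown with 100 nM imatinib, then treated with serially diluted compound for 45 min. Lysates were captured on anti-total-cKIT Luminex beads overnight at 4 °C and probed for phospho-Y307-cKIT. IC50 was fitted from percent of 0.3% DMSO control.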

IC50 [1] | IC50 [2] | SMILES
1.1 nM | 19 nM | COCCOc1cc2[nH]nc(-c3cc(-c4ccc(C(=O)N5C[C@H]6COC[C@H]6C5)cc4)no3)c2cc1F [A202, 3-(3-{4-[(cis)-hexahydro-1H-furo[3,4-c]pyrrole-5-carbonyl]phenyl}-1,2-oxazol-5-yl)-5-fluoro-6-(2-methoxyethoxy)-1H-indazole]
0.88 nM | 61 nM | COCCOc1cc2[nH]nc(-c3cc(-c4ccc(C(=O)N5CC(N6CCOCC6=O)C5)cc4)no3)c2cc1F [A204, 4-[1-(4-{5-[5-fluoro-6-(2-methoxyethoxy)-1H-indazol-3-yl]-1,2-oxazol-3-yl}benzoyl)azetidin-3-yl]morpholin-3-one]
23 nM | 130 nM | O=C(c1ccc(-c2cc(-c3n[nH]c4cc(OCCO)c(F)cc34)on2)cc1)N1CCN(C2COC2)CC1 [A205, 2-{[5-fluoro-3-(3-{4-[4-(oxetan-3-yl)piperazine-1-carbonyl]phenyl}-1,2-oxazol-5-yl)-1H-indazol-6-yl]oxy}ethan-1-ol]
0.67 nM | 79 nM | COCCOc1cc2[nH]nc(-c3cc(-c4ccc(C(=O)N5CC(O)(c6ccncc6)C5)cc4)no3)c2cc1F [A206, 1-(4-{5-[5-fluoro-6-(2-methoxyethoxy)-1H-indazol-3-yl]-1,2-oxazol-3-yl}benzoyl)-3-(pyridin-4-yl)azetidin-3-ol]
1 nM | 73 nM | COCCOc1cc2[nH]nc(-c3cc(-c4ccc(C(=O)N5Cc6cncnc6C5)cc4)no3)c2cc1F [A207, 5-fluoro-6-(2-methoxyethoxy)-3-[3-(4-{5H,6H,7H-pyrrolo[3,4-d]pyrimidine-6-carbonyl}phenyl)-1,2-oxazol-5-yl]-1H-indazole]
0.74 nM | 75 nM | COCCOc1cc2[nH]nc(-c3cc(-c4ccc(C(=O)N5Cc6cn[nH]c6C5)cc4)no3)c2cc1F [A208, 5-fluoro-6-(2-methoxyethoxy)-3-[3-(4-{1H,4H,5H,6H-pyrrolo[3,4-c]pyrazole-5-carbonyl}phenyl)-1,2-oxazol-5-yl]-1H-indazole]
0.86 nM | 120 nM | O=C(c1ccc(-c2cc(-c3n[nH]c4cc(OCCO)c(F)cc34)on2)cc1)N1CC(N2CCOCC2)C1 [A209, 2-{[5-fluoro-3-(3-{4-[3-(morpholin-4-yl)azetidine-1-carbonyl]phenyl}-1,2-oxazol-5-yl)-1H-indazol-6-yl]oxy}ethan-1-ol]
0.8 nM | 30 nM | COCCOc1cc2[nH]nc(-c3cc(-c4ccc(C(=O)N5CC(N6CCO[C@@H](C)C6)C5)cc4)no3)c2cc1F [A210, 5-fluoro-6-(2-methoxyethoxy)-3-[3-(4-{3-[(2S)-2-methylmorpholin-4-yl]azetidine-1-carbonyl}phenyl)-1,2-oxazol-5-yl]-1H-indazole]
1.3 nM | 39 nM | COCCOc1cc2[nH]nc(-c3cc(-c4ccc(C(=O)N5CC(N6CCO[C@H](C)C6)C5)cc4)no3)c2cc1F [A211, 5-fluoro-6-(2-methoxyethoxy)-3-[3-(4-{3-[(2R)-2-methylmorpholin-4-yl]azetidine-1-carbonyl}phenyl)-1,2-oxazol-5-yl]-1H-indazole]
0.59 nM | 41 nM | COCCOc1cc2[nH]nc(-c3cc(-c4ccc(C(=O)N5CC(c6cncnc6)C5)cc4)no3)c2cc1F [A212, 5-fluoro-6-(2-methoxyethoxy)-3-(3-{4-[3-(pyrimidin-5-yl)azetidine-1-carbonyl]phenyl}-1,2-oxazol-5-yl)-1H-indazole]
0.49 nM | 48 nM | COCCOc1cc2[nH]nc(-c3cc(-c4ccc(C(=O)N5Cc6cnn(C)c6C5)cc4)no3)c2cc1F [A213, 5-fluoro-6-(2-methoxyethoxy)-3-[3-(4-{1-methyl-1H,4H,5H,6H-pyrrolo[3,4-c]pyrazole-5-carbonyl}phenyl)-1,2-oxazol-5-yl]-1H-indazole]
1.1 nM | 27 nM | COCCOc1cc2[nH]nc(-c3cc(-c4ccc(C(=O)N5C[C@@H]6CN(C7COC7)C[C@@H]6C5)cc4)no3)c2cc1F [A216, 3-(3-{4-[(cis)-5-(oxetan-3-yl)-octahydropyrrolo[3,4-c]pyrrole-2-carbonyl]phenyl}-1,2-oxazol-5-yl)-5-fluoro-6-(2-methoxyethoxy)-1H-indazole]
0.32 nM | 43 nM | COCCOc1cc2[nH]nc(-c3cc(-c4ccc(C(=O)N5C[C@@H]6CS(=O)(=O)C[C@@H]6C5)cc4)no3)c2cc1F [A217, (cis)-5-(4-{5-[5-fluoro-6-(2-methoxyethoxy)-1H-indazol-3-yl]-1,2-oxazol-3-yl}benzoyl)-hexahydro-1H-2lambda6-thieno[3,4-c]pyrrole-2,2-dione]
0.62 nM | 47 nM | COCCOc1cc2[nH]nc(-c3cc(-c4ccc(C(=O)N5CC(c6cnn(C)c6)C5)cc4)no3)c2cc1F [A218, 5-fluoro-6-(2-methoxyethoxy)-3-(3-{4-[3-(1-methyl-1H-pyrazol-4-yl)azetidine-1-carbonyl]phenyl}-1,2-oxazol-5-yl)-1H-indazole]
8 nM | 280 nM | COc1cc2[nH]nc(-c3cc(-c4ccc(C(=O)N5CCN(C6COC6)CC5)cc4)no3)c2cc1F [A219, {4-[5-(5-Fluoro-6-methoxy-1H-indazol-3-yl)-isoxazol-3-yl]-phenyl}-(4-oxetan-3-yl-piperazin-1-yl)-methanone]
2.2 nM | 160 nM | COc1cc2[nH]nc(-c3cc(-c4ccc(C(=O)N5C[C@H]6COC[C@H]6C5)cc4)no3)c2cc1F [A220, {4-[5-(5-Fluoro-6-methoxy-1H-indazol-3-yl)-isoxazol-3-yl]-phenyl}-(cis)-tetrahydro-furo[3,4-c]pyrrol-5-yl-methanone]
0.54 nM | 120 nM | COCCOc1cc2[nH]nc(-c3cc(-c4ccc(C(=O)N5CC(O)(c6cccnc6)C5)cc4)no3)c2cc1F [A221, 1-(4-{5-[5-fluoro-6-(2-methoxyethoxy)-1H-indazol-3-yl]-1,2-oxazol-3-yl}benzoyl)-3-(pyridin-3-yl)azetidin-3-ol]
0.52 nM | 110 nM | CNCC1CCCN1C(=O)c1ccc(-c2cc(-c3n[nH]c4cc(OCCOC)c(F)cc34)on2)cc1 (centres unmarked) [A222, {[1-(4-{5-[5-fluoro-6-(2-methoxyethoxy)-1H-indazol-3-yl]-1,2-oxazol-3-yl}benzoyl)pyrrolidin-2-yl]methyl}(methyl)amine]
1.1 nM | 380 nM | COCCOc1cc2[nH]nc(-c3cc(-c4ccc(C(=O)N5C[C@H]6CNC[C@H]6C5)cc4)no3)c2cc1F [A223, 3-(3-{4-[(cis)-octahydropyrrolo[3,4-c]pyrrole-2-carbonyl]phenyl}-1,2-oxazol-5-yl)-5-fluoro-6-(2-methoxyethoxy)-1H-indazole]
1.1 nM | 250 nM | O=C(c1ccc(-c2cc(-c3n[nH]c4cc(OCCO)c(F)cc34)on2)cc1)N1CCNCC1 [A224, 2-[(5-fluoro-3-{3-[4-(piperazine-1-carbonyl)phenyl]-1,2-oxazol-5-yl}-1H-indazol-6-yl)oxy]ethan-1-ol]
3.1 nM | 340 nM | COc1cc2[nH]nc(-c3cc(-c4ccc(C(=O)N5CCNCC5)cc4)no3)c2cc1F [A225, {4-[5-(5-fluoro-6-methoxy-1H-indazol-3-yl)-isoxazol-3-yl]-phenyl}-piperazin-1-yl-methanone]
2 nM | 150 nM | COCCOc1cc2[nH]nc(-c3cc(-c4ccc(S(C)(=N)=O)cc4)no3)c2cc1F (centres unmarked) [A226, (4-{5-[5-fluoro-6-(2-methoxyethoxy)-1H-indazol-3-yl]-1,2-oxazol-3-yl}phenyl)(imino)methyl-lambda6-sulfanone]
3 nM | 170 nM | COCCOc1cc2[nH]nc(-c3cc(-c4ccc(S(=O)(=O)N5CCOCC5)cc4)no3)c2cc1F [A227, 5-fluoro-6-(2-methoxyethoxy)-3-{3-[4-(morpholine-4-sulfonyl)phenyl]-1,2-oxazol-5-yl}-1H-indazole]
570 nM | 470 nM | COCCOc1cc2[nH]nc(-c3cc(-c4ccc(C(=O)N5CCN(C(CO)CO)CC5)cc4)no3)c2cc1F [A228, 2-[4-(4-{5-[5-fluoro-6-(2-methoxyethoxy)-1H-indazol-3-yl]-1,2-oxazol-3-yl}benzoyl)piperazin-1-yl]propane-1,3-diol]
47 nM | 1100 nM | CCOc1cc2[nH]nc(-c3cc(-c4ccc(C(=O)N5CCN(C6COC6)CC5)cc4)no3)c2cc1F [A229, 6-ethoxy-5-fluoro-3-(3-{4-[4-(oxetan-3-yl)piperazine-1-carbonyl]phenyl}-1,2-oxazol-5-yl)-1H-indazole]
0.4 nM | 110 nM | COCCOc1cc2[nH]nc(-c3cc(-c4ccc(C5CCNCC5(C)C)cc4)no3)c2cc1F (centres unmarked) [A230, 3-{3-[4-(3,3-dimethyl-piperidin-4-yl)-phenyl]-isoxazol-5-yl}-5-fluoro-6-(2-methoxy-ethoxy)-1H-indazole]
0.61 nM | 52 nM | COCCOc1cc2[nH]nc(-c3cc(-c4ccc(C5CCN(C)CC5(C)C)cc4)no3)c2cc1F (centres unmarked) [A231, 5-fluoro-6-(2-methoxy-ethoxy)-3-{3-[4-(1,3,3-trimethyl-piperidin-4-yl)-phenyl]-isoxazol-5-yl}-1H-indazole]
0.09 nM | 100 nM | [2H]C1([2H])NC([2H])([2H])C([2H])([2H])N(C(=O)c2ccc(-c3cc(-c4n[nH]c5cc(OCCOC)c(F)cc45)on3)cc2)C1([2H])[2H] [A232, 5-fluoro-6-(2-methoxyethoxy)-3-(3-{4-[(2,2,3,3,5,5,6,6-^2H8)piperazine-1-carbonyl]phenyl}-1,2-oxazol-5-yl)-1H-indazole hydrochloride]

Source: US20260042753A1 (Merck Patent GmbH, priority 2019, published 2026)
